Data taken from patent US20240254115A1 (ACONDICIONAMIENTO TARRASENSE, priority 2021, published 2024).

What was measured:
human σ1 receptor = biological target: T1, human σ1 receptor (Homo sapiens, UniProt Q99720); assay: Human σ1 receptor radioligand assay; details: transfected HEK-293 membranes, 5 nM [3H](+)-pentazocine, 37° C. 120 minutes; + may also stand for 1-50% inhibition at 1 or 10 μM; read-out: Binding σ-1 Ki
T1 construct: expressed in transfected cells; host or cells: HEK-293
Experimental: Human σ1 Receptor Radioligand Assay
Transfected HEK-293 membranes (7 μg) were incubated with 5 nM of [^3H](+)-pentazocine in assay buffer containing Tris-HCl 50 mM at pH 8. NBS (non-specific binding) was measured by adding 10 μM haloperidol. The binding of the test compound was measured at either one concentration (% inhibition at 1 or 10 μM) or five different concentrations to determine affinity values (Ki). Plates were incubated at 37° C. for 120 minutes. After the incubation period, the reaction mix was then transferred to MultiScreen HTS, FC plates (Millipore), filtered and plates were washed 3 times with ice-cold 10 mM Tris-HCL (pH7.4). Filters were dried and counted at approximately 40% efficiency in a MicroBeta scintillation counter (Perkin-Elmer) using EcoScint liquid scintillation cocktail.

human σ2/TMEM97 receptor = biological target: T2, human σ2/TMEM97 receptor (Homo sapiens, UniProt Q5BJF2); assay: Binding assay to human σ2/TMEM97 receptor; details: transfected HEK-293 membranes, 10 nM [3H]-DTG, 25° C. 120 minutes; + may also stand for 1-50% inhibition at 1 or 10 μM; read-out: Binding σ-2 Ki
T2 construct: expressed in transfected cells; host or cells: HEK-293
T2 sequence (Q5BJF2 whole entry): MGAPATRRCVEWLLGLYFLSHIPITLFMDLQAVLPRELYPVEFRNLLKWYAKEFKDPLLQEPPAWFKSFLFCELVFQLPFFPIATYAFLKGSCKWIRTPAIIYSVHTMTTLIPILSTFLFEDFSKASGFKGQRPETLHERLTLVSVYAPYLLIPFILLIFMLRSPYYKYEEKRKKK
Experimental: Binding Assay to Human σ2/TMEM97 Receptor
Transfected HEK-293 membranes (15 μg) were incubated with 10 nM [^3H]-1,3-Di-o-tolylguanidine (DTG) in assay buffer containing Tris-HCl 50 mM at pH 8.0. NSB (non-specific binding) was measured by adding 10 μM haloperidol. The binding of the test compound was measured at either one concentration (% inhibition at 1 or 10 μM) or five different concentrations to determine affinity values (Ki). Plates were incubated at 25° C. for 120 minutes. After the incubation period, the reaction mix was transferred to MultiScreen HTS, FC plates (Millipore), filtered and washed 3 times with ice-cold 10 mM Tris-HCL (pH 8.0). Filters were dried and counted at approximately 40% efficiency in a MicroBeta scintillation counter (Perkin-Elmer) using EcoScint liquid scintillation cocktail.

T1 sequence (Q99720 whole entry): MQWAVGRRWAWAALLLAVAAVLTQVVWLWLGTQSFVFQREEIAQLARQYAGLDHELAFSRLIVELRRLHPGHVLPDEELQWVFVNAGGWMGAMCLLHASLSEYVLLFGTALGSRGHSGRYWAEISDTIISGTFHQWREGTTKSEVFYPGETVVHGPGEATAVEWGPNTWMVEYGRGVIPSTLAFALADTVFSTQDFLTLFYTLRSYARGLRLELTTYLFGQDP

Row | SMILES | Ki (human σ1 receptor) | Ki (human σ2/TMEM97 receptor)
1 | O=S(=O)(c1ccc(N2CCOCC2)nc1)N1CCC[C@@H](CNCc2ccc(O)nc2)C1 [Example 65, (S)-5-((((1-((6-Morpholinopyridin-3-yl)sulfonyl)piperidin-3-yl)methyl)amino)methyl)pyridin-2-ol] | > 1000 nM | 100 to 500 nM
2 | CC(C)(C)CCN1CCC2(CC1)CCN(S(=O)(=O)c1ccc(C(F)(F)F)nc1)CC2 [Example 66, 3-(3,3-Dimethylbutyl)-9-((6-(trifluoromethyl)pyridin-3-yl)sulfonyl)-3,9-diazaspiro[5.5]undecane] | < 100 nM | < 100 nM
3 | CC(C)(C)CCN1CCC2(CC1)CCN(S(=O)(=O)c1ccc(C(F)(F)F)nc1)C2 [Example 67, 8-(3,3-Dimethylbutyl)-2-((6-(trifluoromethyl)pyridin-3-yl)sulfonyl)-2,8-diazaspiro[4.5]decane] | < 100 nM | < 100 nM
4 | CC(C)(C)CCN1CCC2(CC1)CCN(S(=O)(=O)c1ccc(N3CCC4(CCOC4)CC3)nc1)CC2 [Example 68, 8-(5-((9-(3,3-Dimethylbutyl)-3,9-diazaspiro[5.5]undecan-3-yl)sulfonyl)pyridin-2-yl)-2-oxa-8-azaspiro[4.5]decane] | 100 to 500 nM | < 100 nM
5 | CC(C)(C)CCN1CCC2(CC1)CCN(S(=O)(=O)c1ccc(N3CCS(=O)(=O)CC3)nc1)CC2 [Example 69, 4-(5-((9-(3,3-Dimethylbutyl)-3,9-diazaspiro[5.5]undecan-3-yl)sulfonyl)pyridin-2-yl)thiomorpholine 1,1-dioxide] | 100 to 500 nM | < 100 nM
6 | CC(C)(C)CCN1CCC2(CC1)CCN(S(=O)(=O)c1ccc(N3CCC(F)(F)CC3)nc1)CC2 [Example 70, 3-((6-(4,4-Difluoropiperidin-1-yl)pyridin-3-yl)sulfonyl)-9-(3,3-dimethylbutyl)-3,9-diazaspiro[5.5]undecane] | < 100 nM | < 100 nM
7 | CC(C)(C)CCN1CCC2(CC1)CCN(S(=O)(=O)c1ccc(N3CCC4(CCCO4)CC3)nc1)CC2 [Example 71, 8-(5-((9-(3,3-Dimethylbutyl)-3,9-diazaspiro[5.5]undecan-3-yl)sulfonyl)pyridin-2-yl)-1-oxa-8-azaspiro[4.5]decane] | < 100 nM | < 100 nM
8 | CC(C)(C)CCN1CCC2(CC1)CCN(S(=O)(=O)c1ccc(N3CCC4(CC3)COC4)nc1)CC2 [Example 72, 7-(5-((9-(3,3-Dimethylbutyl)-3,9-diazaspiro[5.5]undecan-3-yl)sulfonyl)pyridin-2-yl)-2-oxa-7-azaspiro[3.5]nonane] | 500 to 1000 nM | < 100 nM
9 | CC(C)CCN1CCC2(CC1)CCN(S(=O)(=O)c1ccc(N3CCC(F)(F)CC3)nc1)CC2 [Example 73, 3-((6-(4,4-Difluoropiperidin-1-yl)pyridin-3-yl)sulfonyl)-9-isopentyl-3,9-diazaspiro[5.5]undecane] | 100 to 500 nM | < 100 nM
10 | O=S(=O)(c1ccc(N2CCC(F)(F)CC2)nc1)N1CCC2(CCN(Cc3ccccc3)CC2)CC1 [Example 74, 3-Denzyl-9-((6-(4,4-difluoropiperidin-1-yl)pyridin-3-yl)sulfonyl)-3,9-diazaspiro[5.5]undecane] | 100 to 500 nM | < 100 nM
11 | CC(C)(C)CCN1CCCC2(CCN(S(=O)(=O)c3ccc(N4CCOCC4)nc3)CC2)C1 [Example 75, 4-(5-((2-(3,3-Dimethylbutyl)-2,9-diazaspiro[5.5]undecan-9-yl)sulfonyl)pyridin-2-yl)morpholine] | < 100 nM | < 100 nM
12 | CC(C)(C)CCN1CCCC2(CCN(S(=O)(=O)c3ccc(N4CCC(F)(F)CC4)nc3)CC2)C1 [Example 76, 9-((6-(4,4-Difluoropiperidin-1-yl)pyridin-3-yl)sulfonyl)-2-(3,3-dimethylbutyl)-2,9-diazaspiro[5.5]undecane] | < 100 nM | < 100 nM
13 | CC(C)CCN1CCCC2(CCN(S(=O)(=O)c3ccc(N4CCC(F)(F)CC4)nc3)CC2)C1 [Example 77, 9-((6-(4,4-Difluoropiperidin-1-yl)pyridin-3-yl)sulfonyl)-2-isopentyl-2,9-diazaspiro[5.5]undecane] | < 100 nM | < 100 nM
14 | CC(C)(C)CCN1CCCC2(CCN(S(=O)(=O)c3ccc(N4CCC5(CCCO5)CC4)nc3)CC2)C1 [Example 78, 8-(5-((2-(3,3-Dimethylbutyl)-2,9-diazaspiro[5.5]undecan-9-yl)sulfonyl)pyridin-2-yl)-1-oxa-8-azaspiro[4.5]decane] | < 100 nM | < 100 nM
15 | CC(C)(C)CCN1CCC2(CC1)CCN(S(=O)(=O)c1ccc(N3CCOCC3)nc1)C2 [Example 79, 4-(5-((8-(3,3-Dimethylbutyl)-2,8-diazaspiro[4.5]decan-2-yl)sulfonyl)pyridin-2-yl)morpholine] | 100 to 500 nM | < 100 nM
16 | CC(C)(C)CCN1CCC2(CC1)CCN(S(=O)(=O)c1ccc(N3CCC(F)(F)CC3)nc1)C2 [Example 80, 2-((6-(4,4-Difluoropiperidin-1-yl)pyridin-3-yl)sulfonyl)-8-(3,3-dimethylbutyl)-2,8-diazaspiro[4.5]decane] | < 100 nM | < 100 nM
17 | CC(C)(C)CCN1CCC2(CC1)CCN(S(=O)(=O)c1ccc(N3CCC4(CCCO4)CC3)nc1)C2 [Example 81, 8-(5-((8-(3,3-Dimethylbutyl)-2,8-diazaspiro[4.5]decan-2-yl)sulfonyl)pyridin-2-yl)-1-oxa-8-azaspiro[4.5]decane] | < 100 nM | < 100 nM
18 | O=S(=O)(c1ccc(N2CCC(F)(F)CC2)nc1)N1CCC2(CCN(Cc3ccccc3)CC2)C1 [Example 82, 8-Benzyl-2-((6-(4,4-difluoropiperidin-1-yl)pyridin-3-yl)sulfonyl)-2,8-diazaspiro[4.5]decane] | < 100 nM | < 100 nM
19 | O=S(=O)(c1ccc(N2CCC(F)(F)CC2)nc1)N1CCC2(CCN(CC3CCOCC3)CC2)C1 [Example 83, 2-((6-(4,4-Difluoropiperidin-1-yl)pyridin-3-yl)sulfonyl)-8-((tetrahydro-2H-pyran-4-yl)methyl)-2,8-diazaspiro[4.5]decane] | < 100 nM | < 100 nM
20 | O=S(=O)(c1ccc(N2CCC(F)(F)CC2)nc1)N1CCC2(CCCN(CC3CCOCC3)C2)CC1 [Example 84, 9-((6-(4,4-Difluoropiperidin-1-yl)pyridin-3-yl)sulfonyl)-2-((tetrahydro-2H-pyran-4-yl)methyl)-2,9-diazaspiro[5.5]undecane] | < 100 nM | 100 to 500 nM
21 | CC(C)(C)CN1CCCC2(CCN(S(=O)(=O)c3ccc(N4CCC(F)(F)CC4)nc3)CC2)C1 [Example 85, 9-((6-(4,4-Difluoropiperidin-1-yl)pyridin-3-yl)sulfonyl)-2-neopentyl-2,9-diazaspiro[5.5]undecane] | < 100 nM | 500 to 1000 nM
22 | CN(Cc1ccccc1)C1CCN(S(=O)(=O)c2ccc(N3CCC(F)(F)CC3)nc2)CC1 [Example 86, N-Benzyl-1-((6-(4,4-difluoropiperidin-1-yl)pyridin-3-yl)sulfonyl)-N-methylpiperidin-4-amine] | < 100 nM | < 100 nM
23 | CN(Cc1ccccc1)C1CCN(S(=O)(=O)c2ccc(N3CCC4(CCCO4)CC3)nc2)CC1 [Example 87, 1-((6-(1-Oxa-8-azaspiro[4.5]decan-8-yl)pyridin-3-yl)sulfonyl)-N-benzyl-N-methylpiperidin-4-amine] | > 1000 nM | < 100 nM
24 | CC(C)(C)CCN1CCC2(CCCN(S(=O)(=O)c3ccc(N4CCOCC4)nc3)C2)CC1 [Example 88, 4-(5-((9-(3,3-Dimethylbutyl)-2,9-diazaspiro[5.5]undecan-2-yl)sulfonyl)pyridin-2-yl)morpholine] | < 100 nM | < 100 nM
25 | CN(CCC(C)(C)C)[C@H]1CC[C@H](NS(=O)(=O)c2ccc(N3CCOCC3)nc2)CC1 [Example 89, N-((1r,4r)-4-((3,3-Dimethylbutyl)(methyl)amino)cyclo-hexyl)-6-morpholinopyridine-3-sulfonamide] | 500 to 1000 nM | < 100 nM
26 | CC(C)OCCN1CCC2(CC1)CCN(S(=O)(=O)c1ccc(C(F)(F)F)nc1)CC2 [Example 90, 3-(2-Isopropoxyethyl)-9-((6-(trifluoromethyl)pyridin-3-yl)sulfonyl)-3,9-diazaspiro[5.5]undecane] | 100 to 500 nM | < 100 nM
27 | CC(C)CN1CCC2(CC1)CCN(S(=O)(=O)c1ccc(C(F)(F)F)nc1)CC2 [Example 91, 3-Isobutyl-9-((6-(trifluoromethyl)pyridin-3-yl)sulfonyl)-3,9-diazaspiro[5.5]undecane] | 500 to 1000 nM | < 100 nM
28 | CC(C)(C)CCN1CCC2(CCCN(S(=O)(=O)c3ccc(C(F)(F)F)nc3)C2)CC1 [Example 92, 9-(3,3-Dimethylbutyl)-2-((6-(trifluoromethyl)pyridin-3-yl)sulfonyl)-2,9-diazaspiro[5.5]undecane] | < 100 nM | < 100 nM
